According to US7122294B2, “Photoacid generators with perfluorinated multifunctional anions” (3M Innovative Properties Company, priority 2003, dated 2006):
Where “and” joins values, the source holds several entries; their conditions need not be identical. Equal values may be shown once.

Columns and labels:
[1] = Volatility by vacuum distillation from 100% H2SO4; assay type: physicochemical
Method: This example describes an unsuccessful attempt to vacuum distill the difunctional perfluoroorganic disulfonic acid, HO3S(CF2)4SO3H, illustrating the very low volatility of this diacid compared to monofunctional perfluoroalkanesulfonic acids of even higher molecular weight, like C8F17SO3H. The dipotassium salt, KO3S(CF2)4SO3K (40.0 g) and 100% H2SO4 (241 g) were charged to a vacuum distillation apparatus comprising a 250 mL, three-necked flask equipped with a heating mantle, magnetic stirring bar, an insulated short path distillation head and a 100 mL receiver flask. The pot temperature and head temperature were continuously monitored with J-type thermocouple probes. […] The pressure was reduced to 3.6 Torr and the pot temperature raised to 178° C., but still there was no boiling or distillation. The pressure was reduced further and additional heat was applied to the pot to force distillation. Distillate eventually started to collect at a pot temperature of 196° C. and a pressure of 1.75 Torr. A total of 73.3 g of distillate was collected between 184–186° C. (head temperature) before the distillation was terminated. Since this represents 222% of the theoretical HO3S(CF2)4SO3H yield, it was surmised that the distillate was probably mostly sulfuric acid. The presence of significant H2SO4 in the distillate was confirmed by precipitation of BaSO4 upon treatment of an aqueous solution of the distillate with BaCl2.
The remaining pot retains were diluted in about 700 mL of water and treated with 350 mL of tributylamine with stirring. A white solid precipitate presumed to be Bu3NH+−O3S(CF2)4SO3^−Bu3NH^+ formed which was isolated by suction filtration washed with three portions of water and air-dried by suction to yield 44.07 g (66% of theory). […] Thus, even though the molecular weight of this monofunctional acid is 38% greater than that of HO3S(CF2)4SO3H, it is much more volatile and distills at much lower temperature than the difunctional acid. […]

[2] = Thermal gravimetric analysis (TGA), onset of thermal decomposition; assay type: physicochemical; conditions: under nitrogen, ramp 10° C. per minute
Method: TGA was performed on a Perkin-Elmer Instruments TGA Model 7 in an open platinum pan. The onset of thermal decomposition, Td, was taken as the thermal decomposition temperature of the photoacid generators and was determined under nitrogen atmosphere using a temperature ramp of 10° C. per minute. The onset temperature was determined by the intersection of tangents to the low temperature portion of the baseline and the first inflection point in the wt % vs. temperature curve.

[3] = Photo-DSC/DSC cationic curing activity of PAGs in Epon 828; parameters: PDSC Peak Max / PDSC Induction Time: unit not given here; conditions: for PDSC Energy: Epon 828, 1.0% PAG, 0.1% ITX, light exposure 5 min at 30° C.; for DSC after PDSC Onset Temp / DSC after PDSC Energy / DSC after PDSC Peak Max / PDSC Induction Time / DSC Only (dark) Energy / DSC Only (dark) Onset Temp / DSC Only (dark) Peak Max / PDSC Peak Max: Epon 828; for DSC after PDSC Onset Temp: DSC scan 10° C./minute after light exposure; for DSC after PDSC Energy / DSC after PDSC Peak Max: DSC scan after light exposure; for PDSC Induction Time: light exposure at 30° C.; for DSC Only (dark) Energy / DSC Only (dark) Onset Temp / DSC Only (dark) Peak Max: no prior light exposure; for PDSC Peak Max: time to peak maximum of curing exotherm at 30° C.
Method: (§1) Photo-DSC/DSC: Standard (hermetic) liquid sample pans were used. Sample size was kept in the 6 to 8 mg range. Samples were tested using a Dupont Photo-DSC/DSC instrument (available from DuPont, Wilmington, Del.). The light source was a 200 W Hg lamp that delivered about 60 mw/cm at the sample. Samples were exposed in open pans for 5 minutes to the light source at 30° C. then removed from the instrument, sealed and a standard DSC scan run at 10° C./minute to 300° C. A separate DSC experiment was carried out using a sealed sample pan and no prior light exposure to determine the dark reactivity of these PAGs. Comparison of the DSC traces before and after light exposure enables differentiation between the thermal reactivity of the PAGs (in the dark) and their photochemical activity.
(§2) This example describes photo-DSC/DSC experiments designed to quantitatively compare the relative cationic curing reactivities of PAGs of the present invention containing difunctional fluoroorganic sulfonate anions with related PAGs having identical cations and monofunctional perfluoroalkanesulfonate anions. Relative reactivities were measured in three different cationically polymerizable monomer systems, including two different types of epoxies and one vinyl ether.
(§3) The photo-DSC experiment provides information on the photo-cure speed at 30° C. as measured by the induction time (onset) and time to reach the peak maximum in the curing exotherm. […] The energy released under the curing exotherm is a measure of the extent of cure; larger values mean more cure has taken place during the light exposure. […] Comparison with the DSC traces recorded with no prior light exposure provides a measure of the increase in activity after photoactivation of the PAG.
(§4) General: Stock solutions of three cationically curable monomers were prepared as shown in Table 3 with 0.1% (w/w) isopropylthioxanthone (ITX). Epon 828 is a difunctional glycidyl ether epoxy from Shell, ERL-4221 is a difunctional cycloaliphatic epoxy from Union Carbide and VEX 5015 is a trifunctional vinyl ether from Allied Signal. Because of the low sensitivity of these compositions to room lights, all sample preparation was done with the lab lights on but the hood lights off. All PAGs were formulated at 1.0% by weight in the stock monomer/sensitizer solutions. Into a small aluminum pan was weighed 0.02 g of PAG and 0.04 g of propylene carbonate used to promote dissolution of the PAG in the monomer. The pan was heated briefly on a hot plate set at 100° C. to dissolve the PAG, then 2.0 g the stock monomer/sensitizer solution was added. The solution was briefly heated again on a hot plate set at 100° C. to allow complete mixing of the components, then the solution was allowed to cool to room temperature before using.

[4] = Photo-DSC/DSC cationic curing activity of PAGs in VEX 5015; parameters: PDSC Peak Max / PDSC Induction Time: unit not given here; conditions: for PDSC Energy: VEX 5015, 1.0% PAG, 0.1% ITX, light exposure 5 min at 30° C.; for PDSC Induction Time: light exposure at 30° C.; for DSC Only (dark) Onset Temp: no prior light exposure; for PDSC Peak Max: time to peak maximum of curing exotherm at 30° C.
Method: as §1, §2, §3, §4

[5] = Photo-DSC/DSC cationic curing activity of PAGs in ERL-4221; parameters: PDSC Peak Max / PDSC Induction Time: unit not given here; conditions: for PDSC Energy: ERL-4221, 1.0% PAG, 0.1% ITX, light exposure 5 min at 30° C.; for DSC after PDSC Onset Temp / DSC after PDSC Energy / DSC after PDSC Peak Max / PDSC Induction Time / DSC Only (dark) Energy / DSC Only (dark) Onset Temp / DSC Only (dark) Peak Max / PDSC Peak Max: ERL-4221; for DSC after PDSC Onset Temp: DSC scan 10° C./minute after light exposure; for DSC after PDSC Energy / DSC after PDSC Peak Max: DSC scan after light exposure; for PDSC Induction Time: light exposure at 30° C.; for DSC Only (dark) Energy / DSC Only (dark) Onset Temp / DSC Only (dark) Peak Max: no prior light exposure; for PDSC Peak Max: time to peak maximum of curing exotherm at 30° C.
Method: as §1, §2, §3, §4

[6] = Elimination of perfluoroalkylsulfonates from the body; assay type: in vivo; conditions: tested in the form of its potassium salt
[7] = VEX 5015, DSC scan after light exposure
[8] = VEX 5015, two values = two exotherms
[9] = VEX 5015, DSC scan after light exposure, two values = two exotherms

Row | Structure (SMILES) | onset of thermal decomposition (TGA) [2] | PDSC Energy [3] | DSC after PDSC Onset Temp [3] | DSC after PDSC Energy [3] | DSC after PDSC Peak Max [3] | PDSC Induction Time [3] | DSC Only (dark) Energy [3] | DSC Only (dark) Onset Temp [3] | DSC Only (dark) Peak Max [3] | PDSC Peak Max [3] | PDSC Energy [4] | DSC after PDSC Energy [4, 7] | PDSC Induction Time ([4]; VEX 5015) | DSC Only (dark) Onset Temp [4, 8] | PDSC Peak Max ([4]; VEX 5015) | PDSC Energy [5] | DSC after PDSC Onset Temp [5] | DSC after PDSC Energy [5] | DSC after PDSC Peak Max [5] | PDSC Induction Time [5] | also measured
1 | O=S(=O)(O)C(F)(F)C(F)(F)C(F)(F)C(F)(F)C(F)(F)C(F)(F)C(F)(F)C(F)(F)F [C8F17SO3H] | – | – | – | – | – | – | – | – | – | – | – | – | – | – | – | – | – | – | – | – | head temperature of distillation ([1]; 8.00 Torr, from 100% H2SO4): 135–142 °C; pot temperature of distillation ([1]; 8.00 Torr, from 100% H2SO4): 148–157 °C
2 | CC(C)(C)c1ccc([I+]c2ccc(C(C)(C)C)cc2)cc1.CC(C)(C)c1ccc([I+]c2ccc(C(C)(C)C)cc2)cc1.O=S(=O)([O-])C(F)(F)C(F)(F)C(F)(F)S(=O)(=O)[O-] [PAG1, [(p-(CH3)3C—C6H4)2I^+]2-O3S(CF2)3SO3—] | 224 °C | 8 J/g | 100 C.° | 553 J/g | 192 °C | 16.2 | 576 J/g | 180 C.° | 230 °C | 27 | 209 J/g | 54 J/g | 1.6 | 100, C.° and 160 C.° | 4.2 | 7 J/g | 60 C.° | 582 J/g | 148 °C | 15.1 | DSC Only (dark) Energy [5]: 565 J/g; DSC Only (dark) Onset Temp [5]: 150 C.°; DSC Only (dark) Peak Max [5]: 203; PDSC Peak Max [5]: 24
3 | O=S(=O)(O)C(F)(F)C(F)(F)C(F)(F)C(F)(F)F [perfluorobutylsulfonate] | – | – | – | – | – | – | – | – | – | – | – | – | – | – | – | – | – | – | – | – | elimination from the body [6]: eliminates from the body more effectively than perfluorohexylsulfonate and much more effectively than perfluorooctylsulfonate
4 | CC(C)(C)c1ccc([I+]c2ccc(C(C)(C)C)cc2)cc1.CC(C)(C)c1ccc([I+]c2ccc(C(C)(C)C)cc2)cc1.O=S(=O)([O-])C(F)(F)C(F)(F)C(F)(F)C(F)(F)S(=O)(=O)[O-] [PAG2, [(p-(CH3)3C—C6H4)2I^+]2-O3S(CF2)4SO3—] | 237 °C | 7 J/g | 110 C.° | 541 J/g | 194 °C | 17.1 | 574 J/g | 175 C.° | 232 °C | 27 | 220 J/g | 31 J/g | 1.3 | 100, C.° and 160 C.° | 3.4 | 10 J/g | 60 C.° | 538 J/g | 142 °C | 14.8 | solubility in PGMEA: greater than 4 wt %; DSC after PDSC Onset Temp [4, 9]: 135 C.°; DSC after PDSC Peak Max [4, 9]: 158 °C; DSC Only (dark) Energy [5]: 574 J/g; DSC Only (dark) Onset Temp [5]: 150 C.°; DSC Only (dark) Peak Max [5]: 196; PDSC Peak Max [5]: 25
5 | O=S(=O)(O)C(F)(F)C(F)(F)C(F)(F)C(F)(F)S(=O)(=O)O [HO3S(CF2)4SO3H] | – | – | – | – | – | – | – | – | – | – | – | – | – | – | – | – | – | – | – | – | volatility: outcome of vacuum distillation ([1]; from 100% H2SO4, down to 1.75 Torr, pot temperature up to 196° C.): did not distill
